Values joined by “and” are separate entries in the source; they are usually repeats but may differ in a detail not shown here. Equal values may be shown once.
Assay: mn = molality of the nth substance listed, in mol/kg
Details: 100 kPa, Liquid; for speed of sound: Frequency=3 MHz, Single path-length method; for mass density: Vibrating tube method

CCCCn1cc[n+](C)c1.F[B-](F)(F)F [1-butyl-3-methylimidazolium tetrafluoroborate] + O
Details | mass density, 288.15 K [kg/m3] | mass density, 293.15 K | mass density, 298.15 K | mass density, 303.15 K | mass density, 308.15 K | speed of sound, 288.15 K [m/s] | speed of sound, 293.15 K [m/s] | speed of sound, 298.15 K [m/s] | speed of sound, 303.15 K [m/s] | speed of sound, 308.15 K [m/s]
m1 = 0.005 | 999.42 | 998.517 kg/m3 | 997.393 kg/m3 | 995.982 kg/m3 | 994.365 kg/m3 | 1464.7 | 1482.6 | 1497.5 | 1512.3 | 1519.6
m1 = 0.01 | 999.705 | 998.831 kg/m3 | 997.7 kg/m3 and 997.702 kg/m3 | 996.31 kg/m3 and 996.311 kg/m3 | 994.694 kg/m3 | 1465.1 | 1483.1 | 1497.9 | 1512.8 | 1520.6
m1 = 0.03 | 1000.86 | 999.967 kg/m3 and 999.97 kg/m3 | 998.803 kg/m3 | 997.512 kg/m3 and 997.51 kg/m3 | 995.895 kg/m3 | 1467 | 1484.9 | 1499.8 | 1514.6 | 1522.4
m1 = 0.05 | 1002 | 1001 kg/m3 | 999.906 kg/m3 and 999.91 kg/m3 | 998.675 kg/m3 and 998.68 kg/m3 | 996.998 kg/m3 and 997 kg/m3 | 1468.8 | 1486.7 | 1501.6 | 1516.4 | 1524.2

Source: the NIST ThermoML archive (doi:10.1016/j.jct.2017.08.025)
